Where only a bound is given, the exact number is not on record here.

As for `CC(=O)N(C)c1cc(-c2ccnc3c(C(=O)c4cccs4)cnn23)ccc1Cl`, the melting point (usually the temperature, or range, at which the solid turns liquid) was in the range of 191 to 193 °C.

Take `COC(=O)[C@@H](C)NC(=O)CBr`: the melting point was in the range of 51 to 52 °C.

As for `CCCCNC(=O)CNC(=O)CN1CCCC1=O`, the melting point lay within 105 to 106 °C.

The compound `Cc1ccc(C(=O)NC(NC(=S)Nc2cccc([N+](=O)[O-])c2)C(F)(F)F)cc1` (stereo not given) yielded a melting point of 185 to 186 °C.

Turning to `CCCCc1nc(CO)c(C(=O)OC)n1Cc1ccc(-c2ccccc2C(=O)OC(C)(C)C)cc1`, the melting point was determined as 99 °C.

The compound `Oc1ccc(-c2cccnc2)cc1O` showed a melting point of 288 to 290 °C.

As for `Cc1ccc(C)c(NC(=O)CCc2ccc(O)c(N)c2)c1`, the melting point lay in the range of 162 to 163 °C.

`COc1ccc2c(c1)CN(C(=O)NO)N=C2Cc1c(Cl)cncc1Cl`: the melting point is 155 to 158 °C.

`Cn1nc(N)nc1NCCCO`: the melting point lay within 139 to 140 °C.

`CCc1c([N+](=O)[O-])c(C(N)=O)nn1C1CN(CC)C1` yielded a melting point of 177 to 179 °C.

`CCc1ccc(C(=O)N[C@@H]2CCc3cccc(N4CCN(C)CC4)c3C2)cc1` came in with a melting point of 177 to 178 °C.

`CC1=C(C(=O)OCC2CCCO2)C(c2cccc(Br)c2)C(C(=O)OCC2CCCO2)=C(C)N1` (stereo not given) registered a melting point of 138 to 140 °C.

Compound `CC(C)c1nc2c(c(-c3ccc(F)cc3)c1CO)CCC2(C)C` displayed a melting point of 141 to 143 °C.

As to `CCCc1c[nH]c2cc(CO)ccc12`, the melting point is 68 to 71 °C.

`COC(=O)c1c(SCc2ccccc2)n[nH]c1C` yielded a melting point of 109 to 110 °C.

As for `CCCCc1ncc(/C=C2/C(=O)NC(=O)N2C)n1Cc1ccc(C(=O)O)cc1`, the melting point was 248 to 250 °C.

`CC1(CN2CCN(C(=O)OCc3ccc(C(=O)c4ccccc4)cc3)CC2)Cn2cc([N+](=O)[O-])nc2O1` (stereo not given) had a melting point of 105 to 107 °C.

Regarding `Cc1c(Cl)ccc(C(=O)c2cnn(C)c2O)c1Cl`, the melting point lay in the range of 131 to 135 °C.

The compound `COc1cccc(NC(=O)c2cc(C#N)cc(C)n2)c1` yielded a melting point of 189 °C.

The compound `CCOCOc1cc(F)ccc1-c1cc(-c2cccc([N+](=O)[O-])c2)c(C#N)c(NC(=O)c2cccs2)n1` gave a melting point of 166 to 167 °C.

With `COC(=O)c1cn2c(n1)COc1ccc([N+](=O)[O-])cc1-2`, the melting point is 270 to 272 °C.

On to `Cc1c(N)c(C)c(Cc2ccc(C(C)C)cc2)c2c1CCO2`, for which the melting point fell in the range of 114 to 115 °C.

On to `O=C1CCC(N2Cc3c(OCc4cccc(CN5CCn6nc(C(F)(F)F)nc6C5)c4)cccc3C2=O)C(=O)N1` (stereo not given), for which the melting point was in the range of 213 to 215 °C.

Take `CNS(=O)(=O)c1ccc(CCN2CC=C(c3c[nH]c(-c4ccc(F)cc4)c3-c3ccncc3)CC2)cc1OC`: the melting point lay within 245 to 247 °C.

`Cc1cccc(Nc2ccccc2C=O)c1C` displayed a melting point of 45 to 47 °C.

On to `N#Cc1ccc2nc(Cl)c3ccccc3c(=O)c2c1`, for which the melting point was in the range of 217 to 220 °C.

In the case of `N#CCOc1ccc2cc(-c3cnc(Cc4ccccc4)o3)ccc2c1`, the melting point lay within 184 to 187 °C.

On to `COc1cc2c(Nc3ccc(Sc4nccn4C)c(Cl)c3)c(C#N)cnc2cc1OCCCCl`, for which the melting point lay within 271 to 276 °C.

In turn, `CCOCCOCc1ccc(-c2ccc3c(c2)C=C(C(=O)Nc2ccc(CN(C)C4CCOCC4)cc2)CCS3(=O)=O)cc1` came in with a melting point of 184 to 186 °C.

For `CCOC(=O)CSC1=C(C=O)CCc2c(C(=O)OCC)sc(SC)c21`, the melting point was in the range of 102 to 103 °C.

Turning to `CNC(=O)NC(C)C(C)CC(=O)NS(=O)(=O)c1ccc(C)cc1` (stereo not given), the melting point was in the range of 120 to 125 °C.

`NC(=O)[C@H]1[C@H](CS)N(Cc2ccccc2)C(=O)N1Cc1ccccc1` came in with a melting point of 119 to 122 °C.

As for `CNC(=O)Nc1snc(C)c1[N+](=O)[O-]`, the melting point is 249 to 251 °C.

`CNC(=O)O/N=C(/SC)C(F)(F)F` returned a melting point of 83 to 85 °C.

The compound `COC(=O)c1cc(=O)c2cc(OC)cc(N)c2o1` registered a melting point of 145 to 147 °C.

Take `Cc1ccc(Cl)c(Nc2ccccc2C=C2SC(=N)NC2=O)c1Cl`: the melting point lay within 235 to 238 °C.

Turning to `COC(=O)c1nc(-c2ccc(Cl)c(OC)c2F)nc(O)c1Br`, the melting point lay in the range of 192 to 195 °C.

For the compound `CCOC(=O)C1=C(C)NC(C)=C(C(=O)N[C@H](C(=O)OCC)C(C)C)[C@@H]1c1cccc([N+](=O)[O-])c1`, the melting point fell in the range of 135 to 136 °C.

As for `c1cncc(CSc2nnc(-c3ccc4c(c3)CCO4)o2)c1`, the melting point was in the range of 118 to 122 °C.

In turn, `COC(CBr)(CCCC(=O)NN)OC` yielded a melting point of 58 to 60 °C.

Compound `CCOC(=O)C1N=c2sccc2=CN1N` (stereo not given) gave a melting point of 138 to 140 °C.

In the case of `CC(C)Cn1c(CNC(=O)OC(C)(C)C)c(-c2ccc(Cl)cc2)c2cc(/C=C/C(N)=O)ccc2c1=O`, the melting point lay in the range of 152 to 154 °C.

`Nc1nc2ccccc2n1-c1ccc(-c2ccco2)cc1` displayed a melting point of 210 to 212 °C.

Compound `O=C(Nc1ccc(-n2nc(C(F)(F)F)cc2C(F)(F)F)cc1)c1ccc([N+](=O)[O-])cc1` displayed a melting point of 185 to 188 °C.

Turning to `O=C1COc2cc(NC(=O)C(=O)N3CCC(Cc4ccc(F)cc4)CC3)ccc2N1`, the melting point lay in the range of 209 to 212 °C.

On to `COC(=O)c1cc(F)c(-n2c(=O)[nH]n(C)c2=O)cc1F`, for which the melting point came out at 156 °C.

For the compound `O=C(Nc1cc([N+](=O)[O-])c[nH]c1=O)c1ccccc1`, the melting point lay in the range of 267 to 268 °C.

The compound `CN1CCCCc2cc(Nc3ncc(Cl)c(Nc4ccccc4NS(C)(=O)=O)n3)ccc21` came in with a melting point of 170 to 172 °C.

In turn, `C=C(C)C(=O)Oc1ccc(S(=O)(=O)Nc2ccccc2)cc1` gave a melting point of 101 to 102 °C.

In turn, `CCOC(=O)C(=C(c1ccc(F)cc1)c1ccc(F)cc1)c1nnn(C(C)(C)C)n1` showed a melting point of 143 to 144 °C.

As to `CCOC(=O)C(O)C(Oc1ccccc1[N+](=O)[O-])c1ccccc1` (stereo not given), the melting point lay within 129 to 131 °C.

As for `CCOC(=O)c1cn(CC)c2cc(C3CCCCC3)ccc2c1=O`, the melting point fell in the range of 176 to 178 °C.

`C=C1SC(=O)N(c2ccc3cc(-c4cc5c(c(-c6cccnc6)c4)OCO5)ccc3c2)C1=O` gave a melting point of 298 to 300 °C.

Take `CCOC(=O)/C=C/c1cnc(-c2ccc(OCc3ccccc3)c(C34CC5CC(CC(C5)C3)C4)c2)nc1`: the melting point lay within 164 to 167 °C.

Regarding `CCCCc1cccc2[nH]c(C(=O)OCC)cc(=O)c12`, the melting point lay within 132 to 133 °C.

On to `N#Cc1c(Nc2ccccc2)nn(Cc2ccccc2)c1N`, for which the melting point lay within 139 to 140 °C.

With `O=S(=O)(Nc1cccc(OCCc2ccc3ccccc3c2)c1)c1cccc2ccccc12`, the melting point lay within 165 to 167 °C.

Consider `CN1C(=O)CN2CC(CCl)OC2(c2ccccc2)c2cc(Cl)ccc21` (stereo not given), for which the melting point was in the range of 140 to 142 °C.

For the compound `ClCCCc1cc2cccnc2[nH]1`, the melting point came to 75 °C.

With `COc1ccc(Cn2cc(C(=O)C(=O)NC3=CC(=O)OC3)c3ccccc32)cc1`, the melting point was in the range of 265 to 267 °C.

The compound `Oc1ccc(C2(O)CCC3CN(Cc4ccccc4)CCC3C2)cc1` (stereo not given) registered a melting point of 108 to 109 °C.

For the compound `CN1C(=O)C2C3C=CC(C3)C2(c2ccc3c(c2)OCO3)C1=O` (stereo not given), the melting point lay in the range of 116 to 118 °C.

Take `CC(C)(COc1ccc(-n2cc(C(=O)O)cn2)cc1C#N)C(=O)O`: the melting point fell in the range of 230 to 233 °C.

Compound `COc1ccc(C(=C/C=C/C(=O)NCCCOc2cccnc2)c2ccc(OC)cc2)cc1` had a melting point of 146 to 147 °C.

`COC(=O)c1ccc(-c2cc(-c3cc4c(cc3C)CCCC4(C)C)[nH]n2)cc1` registered a melting point of 92 to 93 °C.

Take `Cn1cc(C2=C(c3c4n(c5ccccc35)CCC(CCN=[N+]=[N-])C4)C(=O)NC2=O)c2ccccc21` (stereo not given): the melting point was in the range of 262 to 264 °C.

With `O=C1c2ccc([N+](=O)[O-])cc2S(=O)(=O)N1CSc1ccccc1`, the melting point was 161 to 163 °C.

In the case of `O=C(O)c1cc(NS(=O)(=O)c2ccc([N+](=O)[O-])cc2)ccc1O`, the melting point lay in the range of 239 to 240 °C.

`O=C(CCCCCCNC(=O)c1cc2cccc3c2n1CCC3)NO` yielded a melting point of 160 to 161 °C.

With `[N-]=[N+]=NCCCn1ccc(-c2ccc(F)cc2)c1-c1ccncc1`, the melting point fell in the range of 219 to 222 °C.

Consider `COc1c(C)c2c(c(O)c1CC=C(C)CC(C)C(=O)O)C(=O)OC2` (stereo not given), for which the melting point lay within 122 to 123 °C.

In the case of `CN(C)C(=O)Nc1ccc(Oc2ccc(Cl)nn2)cc1`, the melting point is 173 to 174 °C.

Compound `N#Cc1ccc2c(c1)N(C1CC1)CNS2(=O)=O` returned a melting point of 178 to 180 °C.

Take `CCc1ccc(NN)c(Cl)c1`: the melting point was 55 to 57 °C.

As to `Cc1nn(C)c(=O)n1-c1ccc(N)cc1`, the melting point came to 160 °C.

`OCCCn1cc(-c2cc3nccnc3[nH]2)c2ccccc21` gave a melting point of 220 to 221 °C.

As to `C=CCn1cc(C2CCN(CCOc3ccccc3C(=O)O)CC2)c2ccccc21`, the melting point was 123 to 125 °C.

With `O=C(O)c1ccccc1Nc1ccc(CCc2ccc(O)c(O)c2)cc1`, the melting point fell in the range of 215 to 217 °C.

In turn, `CC(C)c1cc(Oc2ccccc2)cc(C(C)C)c1N` showed a melting point of 71 to 72 °C.

As for `O=C1NC(=O)C2(CCc3cc(F)ccc32)N1` (racemic), the melting point was above 260 °C.

Compound `CCCN(SCNC(=O)ON=C(C)SC)P(=S)(OCC)OCC` yielded a melting point of 68 to 69 °C.

As to `O=C(Nc1cc(S(=O)(=O)NCCO)sc1Cl)c1cnn2c(C(F)(F)F)cc(-c3ccc(C(F)(F)F)cc3)nc12`, the melting point worked out at 191 °C.

`CN(C)C(=O)c1ccccc1Sc1ccc(Cl)cc1C=O` registered a melting point of 87 to 88 °C.

In turn, `COC(=O)C1CCc2cc(C)c(C)cc2C1=O` (stereo not given) showed a melting point of 80 to 81 °C.

The compound `CC(NC(=O)OC(C)(C)C)C(=O)NO` (stereo not given) showed a melting point of 74 to 76 °C.

Regarding `COCCc1nc2c(N)nc3cc(OCc4ccccc4)ccc3c2n1CC(C)(C)O`, the melting point was in the range of 185 to 186 °C.

Turning to `CC1(C)CNc2cc(Br)ccc21`, the melting point lay within 100 to 102 °C.

Turning to `CCNC(=O)NCc1ccc(/C=C/C(c2cc(Cl)c(Cl)c(Cl)c2)C(F)(F)F)c2ccccc12` (stereo not given), the melting point is 84 to 87 °C.

Regarding `Cc1ccc(CC2CCN(C(=O)C(=O)Nc3ccc4[nH]c(=O)[nH]c4c3)CC2)cc1`, the melting point is above 280 °C.

As for `Cc1cc(N=C2NCCN2)cc(NS(C)(=O)=O)c1C`, the melting point is 254 to 255 °C.

(Values after a melting point compilation (Tetko et al.; mined from patent text by program, amines drawn as free bases though some values may be those of a salt).)
